Data: US20240376163A1, “PEPTIDE FOR INHIBITING CALCINEURIN AND USE THEREOF” (Seoul National University R&DB Foundation, priority 2023, published 2024)

Tested on: tNFATC2
Experiment: Confocal microscopy of nuclear-localized tNFATC2 in Jurkat T cells
Assay type: cell-based
Details: activated Jurkat T cells
Protocol: Jurkat T cells were transfected with pCAG-EGFP-tNFATC2-IRES-mCherry-peptide by electroporation. Two days later, these cells were pretreated with […] for 30 min. Afterwards, they were treated with 40 nM PMA and 1 μM ionomycin for 4 hours under culture conditions. Nuclei were stained by treating these cells with 10 μg/ml Hoechst 33342 (Invitrogen, Waltham, MA, USA) before imaging with a confocal laser scanning microscopy (Nikon, Tokyo, Japan). Colocalization analysis of […] and Hoechst was performed with ImageJ and corresponding plug-in JACoP to measure the Manders coefficient (Manders, E. M. et al., J. Cell Sci. 103, 857-862 (1992), Bolte, J. Microsc. 224, 213-232 (2006)).

| Compound | proportion of nuclear-localized tNFATC2 |
| --- | --- |
| C=CC[C@@H]1/C=C(\C)C[C@H](C)C[C@H](OC)[C@H]2O[C@@](O)(C(=O)C(=O)N3CCCC[C@H]3C(=O)O[C@H](/C(C)=C/[C@@H]3CC[C@@H](O)[C@H](OC)C3)[C@H](C)[C@@H](O)CC1=O)[C@H](C)C[C@@H]2OC [FK506, Tacrolimus, reference compound] | lowest |
| PEITVTPPTP [CABIN1-L-1-2] | slightly higher |
